From patent US20080249144A1, “Preventive or Therapeutic Agent for Chronic Inflammatory Lung Disease” (KAKEN PHARMACEUITICAL CO., LTD., priority 2004, published 2008) come the findings set out here.

The structures appear in SMILES notation.

The test system of experiment [1] is murine model of BLM-induced pulmonary fibrosis. The experiment can be described thus: BLM-induced pulmonary fibrosis model in mice. The format is in vivo. As for the experimental part: Bleomycin chloride (BLM) was dissolved in a physiological saline solution (saline). BLM was intravenously administered to 10-week-old ICR-strain male mice once in a dose of […] to induce disease. To a non-BLM administration group, saline was administered, instead. KP-496 was administered by inhalation twice a day from the initiation date of BLM administration to the day before autopsy. To describe in brief, a mouse housed in a polyethylene container under unrestrained conditions was allowed to spontaneously inhale a mist state of KP-496 solution (0.5 w/v %) nebulized by a nebulizer for 30 minutes. Furthermore, the vehicle (saline) for KP-496 was administered by inhalation to a control group, in the same manner. A group consisted of 8 animals.
On the 7th day or 21st day after administration of BLM, the mouse was killed by exsanguinations under anaesthesia with pentobarbital. Immediately after that, BAL of the right lung alone was done. BAL fluid (BALF) was centrifuged and the supernatant was removed, and thereafter, precipitated cells were resuspended in saline. The total number of cells was determined by use of a particle counter analyzer. Furthermore, using the remaining cell suspension solution, a smear sample of cells was prepared and stained with Giemsa. The cells were classified according to the cell type. Based on the percentages of cell types, the numbers of classified cells were calculated.
After BAL, the right lung was lyophilized. The content of hydroxyproline in the lung tissue was measured in accordance with the KISO method using chloramine T (Inayama et al., Keio J. Med., 27: 43 (1978)).
After BAL, the left lung was fixed in 10 vol % neutral-buffered formalin solution. Thereafter, a paraffin section was prepared in a general way, stained with H. E. and azan and subjected to histopathologic examination of the lung. When an abnormality was observed, the degree of the abnormality was arbitrarily evaluated under blind conditions and scored based on the following 4 stages:
0: No abnormality is observed
1: Pathologic lesion is locally observed in a limited area of a sample
2: Pathologic lesion is observed about a ⅓ region of a sample
3: Pathologic lesion is observed about a ½ region of a sample
4: Pathologic lesion is observed in substantially the entire region of a sample.
The average value and standard deviation of each group were obtained. Comparison between two groups, that is, between BLM administration/vehicle group and BLM administration/KP-496 group or a saline administration/vehicle group, was performed with the Student's t-test. Furthermore, histopathologic lesion scores were evaluated by the Mann-Whitney test. The significance level (P) was set at […].

The test system of experiment [2] is vanadium pentoxide-induced bronchitis model. As to the kind of experiment: Vanadium pentoxide-induced bronchitis model in mice. The format is in vivo. The following applies: 7 days after vanadium pentoxide; compared with control. As for the experimental part: Seven-week old C57BL strain male mice were used. The mouse was anaesthetized with isoflurane. Vanadium pentoxide (20 μg) was administered once to the lung through a cannula inserted into the trachea through the pharyngolarynx to induce pathology. To a non-vanadium pentoxide administration group (normal group), saline was administered, instead. KP-496 was administered by inhalation twice a day in the period from the vanadium pentoxide administration date to the day before autopsy, in the same manner as in Example 2. Furthermore, the normal group and the control group were allowed to spontaneously inhale saline in the same manner. A medicament for use in comparison, prednisolone, was orally administered at a dose of 5 mg/kg twice a day in the period from the vanadium pentoxide administration date to the day before autopsy. Note that the normal group consisted of 6 animals and the other group consisted of 10 animals. Each of the mice was anaesthetized with pentobarbital 7 days after vanadium pentoxide administration and killed by bloodletting from the abdominal aorta. The lung was excised out and fixed in 10 vol % neutral buffered formalin solution. […] The obtained value was divided by the circumferential length of the bronchial lumen (obtained in mucosal basal membrane) and the quotient was expressed as a mucus producing region area per millimeter of the bronchus. […]

Where [3] appears, read: 7th day after BLM, inhalation twice a day.
Setting [4] is: 21st day after BLM, inhalation twice a day.

On to `CC(C)c1csc(COc2cccc(CN(CCCCNS(=O)(=O)c3ccc(Cl)cc3)S(=O)(=O)c3ccccc3C(=O)O)c2)n1` [KP-496, 2-{N-[4-(4-chlorobenzenesulfonylamino)butyl]-N-{3-[(4-isopropyl-2-thiazolyl)methoxy]benzyl}}sulfamoylbenzoic acid], for which, in experiment [1] (7th day after BLM), the “hydroxyproline content of the right lung lobe” value came to 129.9 ± 11.35 µg. Also, in experiment [1] (7th day after BLM, KP-496 0.5 w/v % inhalation twice a day), the “total number of cells in BALF” value is 0.6±0.29 ×10^5 cells. Also, in experiment [1] (setting [3]), the “number of alveolar macrophages in BALF” value is on record as 0.6±0.27 ×10^5 cells, the “number of eosinophils in BALF” value is reported as 0.3±0.68 ×10^3 cells, the “number of lymphocytes in BALF” value was 0.1±0.09 ×10^4 cells and the “number of neutrophils in BALF” value is given as 0.2±0.11 ×10^4 cells. Besides, the “histopathologic score of acute inflammation, left lung” value in experiment [1] (7th day after BLM, score 0-4) turned out to be 1.0±0.76. For the same compound, in experiment [1] (21st day after BLM), the “hydroxyproline content of the right lung lobe” value came to 138.0 ± 9.93 µg. For the same compound, in experiment [1] (setting [4]), the “number of alveolar macrophages in BALF” value is listed as 0.7±0.23 ×10^5 cells, the “number of eosinophils in BALF” value is listed as 0.1±0.21 ×10^3 cells, the “number of lymphocytes in BALF” value was 0.3±0.10 ×10^4 cells and the “number of neutrophils in BALF” value is recorded as 0.02±0.02 ×10^4 cells. Further, the “total number of cells in BALF” value in experiment [1] (setting [4]) was 0.8±0.24 ×10^5 cells. Also, in experiment [1] (21st day after BLM, score 0-4), the “histopathologic score of chronic inflammation, left lung” value was determined as 1.0±0.76 and the “histopathologic score of fibrogenesis, left lung” value was found to be 0.6±0.52. In experiment [2], the “increase of PAS positive area (mucus producing region of intrapulmonary bronchial epithelium)” value is recorded as “significantly suppressed”.
